The test concerns the target human recombinant H-PGDS (Homo sapiens, UniProt O60760). Put plainly: Fluorescence Intensity h-PGDS TBA Enzyme Assay. Conditions: 1:175,000 human recombinant H-PGDS, highest inhibitor concentration typically 1 μM. In kind it is biochemical. In a few lines: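 Recombinant human H-PGDS preincubated 10 min at room temperature with inhibitor in 100 mM Tris pH 8.0, 100 μM MgCl2, 2.5 mM glutathione, 0.5% DMSO; 5.0 μM PGH2 added, stopped after 42 s with FeCl2/citric acid. Remaining PGH2 measured as MDA–TBA fluorescence (ex 530/em 565 nm); IC50 by 4-parameter fit, 11 concentrations.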

human recombinant H-PGDS, sequence (O60760 whole entry): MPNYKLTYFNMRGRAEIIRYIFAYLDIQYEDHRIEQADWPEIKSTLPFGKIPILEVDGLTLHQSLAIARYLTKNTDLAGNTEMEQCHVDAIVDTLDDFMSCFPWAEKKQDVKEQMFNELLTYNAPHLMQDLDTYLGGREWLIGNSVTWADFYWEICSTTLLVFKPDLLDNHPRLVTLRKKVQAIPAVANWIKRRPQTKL

As a reminder, the IC50 is the point on the concentration scale where inhibition reaches its midpoint. On to `Cc1cccc(-c2ccc(C(=O)Nc3ccncc3)cn2)c1` [Example 228, 6-(3-Methylphenyl)-N-pyridin-4-ylnicotinamide], for which the 50% inhibitory concentration (IC50) is 6.51 nM.
On to `CCC(C)NC(=O)c1ccc(-c2ccc(F)cc2)nc1` (stereo not drawn) [Example 492, N-sec-Butyl-6-(4-fluorophenyl)nicotinamide], for which the IC50 is at least 1000 nM.
The same measure for `CCC1CCN(CCNC(=O)c2ccc(-c3ccc(F)cc3)nc2)CC1` [Example 468, N-[2-(4-Ethylpiperidin-1-yl)ethyl]-6-(4-fluorophenyl)nicotinamide]: 688 nM.
Consider `O=C(NCCN1CCCCC1)c1ccc(-c2ccc(F)cc2)nc1` [Example 324, 6-(4-Fluorophenyl)-N-(2-piperidin-1-ylethyl)nicotinamide], for which the IC50 was at least 1000 nM.
For `COc1cccc(-c2ccc(C(=O)Nc3cccnc3)cn2)c1` [Example 485, 6-(3-Methoxyphenyl)-N-pyridin-3-ylnicotinamide], the IC50 was determined as 201 nM.
Regarding `O=C(NCc1nc2ccccc2s1)c1cnc(-c2cccc(F)c2)c(Cl)c1` [Example 546, N-(1,3-Benzothiazol-2-ylmethyl)-5-chloro-6-(3-fluorophenyl)nicotinamide], the concentration for half-maximal inhibition (IC50) worked out at 59.6 nM.
In the case of `O=C(NCC1(O)CCC1)c1ccc(-c2cccc(F)c2)nc1` [Example 141, 6-(3-Fuorophenyl)-N-[(1-hydroxycyclobutyl)methyl] nicotinamide], the IC50 is 34.5 nM.
The same measure for `O=C(Nc1cccn(Cc2ccccc2)c1=O)c1ccc(-c2ccccc2)nc1` [Example 402, N-(1-Benzyl-2-oxo-1,2-dihydropyridin-3-yl)-6-phenylnicotinamide]: 8 nM; for `O=C(NCc1ccc(C(F)(F)F)cc1)c1ccc(-c2cccc(F)c2)nc1` [Example 409, 6-(3-Fluorophenyl)-N-[4-(trifluoromethyl)benzyl] nicotinamide]: 233 nM.
As for `COc1ccc(C(CNC(=O)c2ccc(-c3cccc(F)c3)nc2)N2CCOCC2)cc1` (stereo not drawn) [Example 190, 6-(3-Fluorophenyl)-N-[2-(4-methoxyphenyl)-2-morpholin-4-ylethyl]nicotinamide], the IC50 worked out at 1330 nM.
As for `COC(=O)c1ccc(CNC(=O)c2ccc(-c3cccc(C)c3)nc2)cc1` [Example 455, Methyl 4-[({[6-(3-methylphenyl)pyridin-3-yl]carbonyl}amino)methyl] benzoate], the concentration for half-maximal inhibition (IC50) amounted to 95.1 nM.
Turning to `COC(=O)CC(NC(=O)c1ccc(-c2ccccc2)nc1)c1cccnc1` (stereo not drawn) [Example 370, Methyl 3-{[(6-phenylpyridin-3-yl)carbonyl]amino}-3-pyridin-3-ylpropanoate], the IC50 came out at 32.9 nM.
The same measure for `C[C@@H](NC(=O)c1ccc(-c2cccc(F)c2)nc1)[C@@H](O)c1ccccc1` [Example 81, 6-(3-Fluorophenyl)-N-[(1R,2S)-2-hydroxy-1-methyl-2-phenethyl]nicotinamide]: 41.2 nM; for `CCOC(=O)CC(NC(=O)c1ccc(-c2cccc(OC)c2)nc1)c1ccccc1` (stereo not drawn) [Example 272, Ethyl 3-({[6-(3-methoxyphenyl)pyridin-3-yl]carbonyl}amino)-3-phenylpropanoate]: 474 nM.
Regarding `COc1ccc(OC)c(C(O)CNC(=O)c2ccc(-c3cccc(F)c3)nc2)c1` (stereo not drawn) [Example 50, N-[2-(2,5-Dimethoxyphenyl)-2-hydroxyethyl]-6-(3-fluorophenyl)nicotinamide], the half-inhibitory concentration (IC50) worked out at 8.14 nM.
`Cc1cccc(NC(=O)c2ccc(-c3ccccc3)nc2)c1` [Example 392, N-(3-Methylphenyl)-6-phenylnicotinamide]: the IC50 came to 1.12 nM.
For the molecule `Cc1cccc(-c2ccc(C(=O)NCc3ccccc3C)cn2)c1` [Example 226, N-(2-Methylbenzyl)-6-(3-methylphenyl)nicotinamide], the IC50 was 12.4 nM.
The same measure for `O=C(NCCNc1ncccn1)c1ccc(-c2cccc(F)c2)nc1` [Example 64, 6-(3-Fluorophenyl)-N-[2-(pyrimidin-2-ylamino)ethyl]nicotinamide]: 12.9 nM.
